# In patent US20200016136A1 (VIIV HEALTHCARE UK (NO. 5) LIMITED, priority 2017, published 2020):
# Test system: NL-RLuc virus (recombinant NL4-3 HIV with Renilla Luciferase gene)
# Test: Inhibition of HIV replication (NL-RLuc virus in MT-2 cells, luciferase readout)
# Assay type: cell-based, Human immunodeficiency virus (HIV)
# Details: MT2, 120 h
# Description: Inhibition of HIV Replication:
# A recombinant NL-RLuc proviral clone was constructed in which a section of the nef gene form NL4-3 was replaced with the Renilla Luciferase gene. This virus is fully infectious and can undergo multiple cycles of replication in cell culture. In addition, the luciferous reporter provides a simple and easy method for quantitating the extent of virus growth and consequently, the antiviral activity of test compounds. The plasmid pNLRLuc contains the proviral NL-Rluc DNA cloned into pUC18 at the PvuII site. The NL-RLuc virus was prepared by transfection of 293T cells with the plasmid pNLRLuc. Transfections were performed using the LipofectAMINE PLUS kit form Invitrogen (Carlsbad, Calif.) according to the manufacturer and the virus generated was titered in MT-2 cells. For susceptibility analyses, the titrated virus was used to infect MT-2 cells in the presence of compound, and after 5 days of incubation, cells were processed and quantitated for virus growth by the amount of expressed luciferase. Assay media was RPMI 1640 supplemented with 10% heat inactivated fetal bovine serum (FBS), 100 units/ml penicillin G/100 units/ml streptomycin, 10 mM HEPES buffer pH 7.55 and 2 mM L-glutamine. The results form at least 2 experiments were used to calculate the EC50 values. Luciferase was quantitated using the Dual Luciferase kit form Promega (Madison, Wis.). Susceptibility of viruses to compounds was determined by incubation in the presence of serial dilutions of the compound. The 50% effective concentration (EC50) was calculated by using the exponential form of the median effect equation where (Fa)=1/[1+(ED50/drug conc.)^m](Johnson V A, Byington R T. Infectivity Assay. In Techniques in HIV Research. ed. Aldovini A, Walker B D. 71-76. New York: Stockton Press. 1990).
row,SMILES,EC50
1,"Cc1nc(C)c([C@H](OC(C)(C)C)C(=O)O)c(N2CCC(C)(C)CC2)c1-c1ccc2c(c1)CCN(c1nccc(N3CC4CCC(C3)O4)n1)C2 [Example 30, (2S)-2-(tert-Butoxy)-2-[4-(4,4-dimethylpiperidin-1-yl)-2,6-dimethyl-5-[2-(4-{8-oxa-3-azabicyclo[3.2.1]octan-3-yl}pyrimidin-2-yl)-1,2,3,4-tetrahydroisoquinolin-6-yl]pyridin-3-yl]acetic Acid]",1 nM
2,"Cc1nc(C)c([C@H](OC(C)(C)C)C(=O)O)c(N2CCC(C)(C)CC2)c1-c1ccc2c(c1)CCN(c1ccnc(N3C4CCC3COC4)n1)C2 [Example 31, (2S)-2-(tert-Butoxy)-2-[4-(4,4-dimethylpiperidin-1-yl)-2,6-dimethyl-5-[2-(2-{3-oxa-8-azabicyclo[3.2.1]octan-8-yl}pyrimidin-4-yl)-1,2,3,4-tetrahydroisoquinolin-6-yl]pyridin-3-yl]acetic Acid]",2 nM
3,"Cc1nc(C)c([C@H](OC(C)(C)C)C(=O)O)c(N2CCC(C)(C)CC2)c1-c1ccc2c(c1)CCN(c1nccc(N3C4CCC3COC4)n1)C2 [Example 32, (2S)-2-(tert-Butoxy)-2-[4-(4,4-dimethylpiperidin-1-yl)-2,6-dimethyl-5-[2-(4-{3-oxa-8-azabicyclo[3.2.1]octan-8-yl}pyrimidin-2-yl)-1,2,3,4-tetrahydroisoquinolin-6-yl]pyridin-3-yl]acetic Acid]",1 nM
4,"Cc1nc(C)c([C@H](OC(C)(C)C)C(=O)O)c(N2CCC(C)(C)CC2)c1-c1ccc2c(c1)CCN(c1nccc(N3C4COCC3COC4)n1)C2 [Example 33, (2S)-2-(tert-Butoxy)-2-[4-(4,4-dimethylpiperidin-1-yl)-5-[2-(4-{3,7-dioxa-9-azabicyclo[3.3.1]nonan-9-yl}pyrimidin-2-yl)-1,2,3,4-tetrahydroisoquinolin-6-yl]-2,6-dimethylpyridin-3-yl]acetic Acid]",5 nM
5,"Cc1nc(C)c([C@H](OC(C)(C)C)C(=O)O)c(N2CCC(C)(C)CC2)c1-c1ccc2c(c1)CCN(c1ccnc(N3C4COCC3COC4)n1)C2 [Example 34, (2S)-2-(tert-Butoxy)-2-[4-(4,4-dimethylpiperidin-1-yl)-5-[2-(2-{3,7-dioxa-9-azabicyclo[3.3.1]nonan-9-yl}pyrimidin-4-yl)-1,2,3,4-tetrahydroisoquinolin-6-yl]-2,6-dimethylpyridin-3-yl]acetic Acid]",5 nM
6,"Cc1nc(C)c([C@H](OC(C)(C)C)C(=O)O)c(N2CCC(C)(C)CC2)c1-c1ccc2c(c1)CCN(c1nccc(N3C4CCCC3COC4)n1)C2 [Example 35, (2S)-2-(tert-Butoxy)-2-[4-(4,4-dimethylpiperidin-1-yl)-2,6-dimethyl-5-[2-(4-{3-oxa-9-azabicyclo[3.3.1]nonan-9-yl}pyrimidin-2-yl)-1,2,3,4-tetrahydroisoquinolin-6-yl]pyridin-3-yl]acetic Acid]",3 nM
7,"Cc1nc(C)c([C@H](OC(C)(C)C)C(=O)O)c(N2CCC(C)(C)CC2)c1-c1ccc2c(c1)CCN(c1ccnc(N3C4CCCC3COC4)n1)C2 [Example 36, (2S)-2-(tert-Butoxy)-2-[4-(4,4-dimethylpiperidin-1-yl)-2,6-dimethyl-5-[2-(2-{3-oxa-9-azabicyclo[3.3.1]nonan-9-yl}pyrimidin-4-yl)-1,2,3,4-tetrahydroisoquinolin-6-yl]pyridin-3-yl]acetic Acid]",3 nM
8,"Cc1cc(N2CCOCC2)nc(N2CCc3cc(-c4c(C)nc(C)c([C@H](OC(C)(C)C)C(=O)O)c4N4CCC(C)(C)CC4)ccc3C2)n1 [Example 37, (2S)-2-(tert-Butoxy)-2-[4-(4,4-dimethylpiperidin-1-yl)-2,6-dimethyl-5-{2-[4-methyl-6-(morpholin-4-yl)pyrimidin-2-yl]-1,2,3,4-tetrahydroisoquinolin-6-yl}pyridin-3-yl]acetic Acid]",1 nM
9,"Cc1nc(C)c([C@H](OC(C)(C)C)C(=O)O)c(N2CCC(C)(C)CC2)c1-c1ccc2c(c1)CCN(c1ncc(F)c(N3CCOCC3)n1)C2 [Example 38, (2S)-2-(tert-Butoxy)-2-[4-(4,4-dimethylpiperidin-1-yl)-5-{2-[5-fluoro-4-(morpholin-4-yl)pyrimidin-2-yl]-1,2,3,4-tetrahydroisoquinolin-6-yl}-2,6-dimethylpyridin-3-yl]acetic Acid]",3 nM
10,"Cc1nc(C)c([C@H](OC(C)(C)C)C(=O)O)c(N2CCC(C)(C)CC2)c1-c1ccc2c(c1)CCN(c1ccnc(N3CCN(C)CC3)n1)C2 [Example 39, (2S)-2-(tert-Butoxy)-2-[4-(4,4-dimethylpiperidin-1-yl)-2,6-dimethyl-5-{2-[2-(4-methylpiperazin-1-yl)pyrimidin-4-yl]-1,2,3,4-tetrahydroisoquinolin-6-yl}pyridin-3-yl]acetic Acid]",5 nM
11,"Cc1nc(C)c([C@H](OC(C)(C)C)C(=O)O)c(N2CCC(C)(C)CC2)c1-c1ccc2c(c1)CCN(c1nccc(N3CCN(C)CC3)n1)C2 [Example 40, (2S)-2-(tert-Butoxy)-2-[4-(4,4-dimethylpiperidin-1-yl)-2,6-dimethyl-5-{2-[4-(4-methylpiperazin-1-yl)pyrimidin-2-yl]-1,2,3,4-tetrahydroisoquinolin-6-yl}pyridin-3-yl]acetic Acid]",4 nM
12,"Cc1nc(C)c([C@H](OC(C)(C)C)C(=O)O)c(N2CCC(C)(C)CC2)c1-c1ccc2c(c1)CCN(c1nccc(N3C[C@@H](C)N(C)[C@@H](C)C3)n1)C2 [Example 41, (2S)-2-(tert-Butoxy)-2-[4-(4,4-dimethylpiperidin-1-yl)-2,6-dimethyl-5-(2-{4-[(3R,5S)-3,4,5-trimethylpiperazin-1-yl]pyrimidin-2-yl}-1,2,3,4-tetrahydroisoquinolin-6-yl)pyridin-3-yl]acetic Acid]",3 nM
13,"Cc1nc(C)c([C@H](OC(C)(C)C)C(=O)O)c(N2CCC(C)(C)CC2)c1-c1ccc2c(c1)CCN(c1ccnc(N3C4CCC3CN(C)C4)n1)C2 [Example 42, (2S)-2-(tert-Butoxy)-2-[4-(4,4-dimethylpiperidin-1-yl)-2,6-dimethyl-5-[2-(2-{3-methyl-3,8-diazabicyclo[3.2.1]octan-8-yl}pyrimidin-4-yl)-1,2,3,4-tetrahydroisoquinolin-6-yl]pyridin-3-yl]acetic Acid]",4 nM
14,"Cc1nc(C)c([C@H](OC(C)(C)C)C(=O)O)c(N2CCC(C)(C)CC2)c1-c1ccc2c(c1)CCN(c1nccc(N3C4CCC3CN(C)C4)n1)C2 [Example 43, (2S)-2-(tert-Butoxy)-2-[4-(4,4-dimethylpiperidin-1-yl)-2,6-dimethyl-5-[2-(4-{3-methyl-3,8-diazabicyclo[3.2.1]octan-8-yl}pyrimidin-2-yl)-1,2,3,4-tetrahydroisoquinolin-6-yl]pyridin-3-yl]acetic Acid]",3 nM
15,"Cc1nc(C)c([C@H](OC(C)(C)C)C(=O)O)c(N2CCC(C)(C)CC2)c1-c1ccc2c(c1)CCN(c1nccc(N3CCN4CCC3CC4)n1)C2 [Example 44, (2S)-2-(tert-Butoxy)-2-{5-[2-(4-{1,4-diazabicyclo[3.2.2]nonan-4-yl}pyrimidin-2-yl)-1,2,3,4-tetrahydroisoquinolin-6-yl]-4-(4,4-dimethylpiperidin-1-yl)-2,6-dimethylpyridin-3-yl}acetic Acid]",27 nM
16,"Cc1nc(C)c([C@H](OC(C)(C)C)C(=O)O)c(N2CCC(C)(C)CC2)c1-c1ccc2c(c1)CCN(c1ccnc(N3CCS(=O)(=O)CC3)n1)C2 [Example 45, (S)-2-(tert-Butoxy)-2-(4-(4,4-dimethylpiperidin-1-yl)-5-(2-(2-(1,1-dioxidothiomorpholino)pyrimidin-4-yl)-1,2,3,4-tetrahydroisoquinolin-6-yl)-2,6-dimethylpyridin-3-yl)acetic Acid]",8 nM
17,"Cc1nc(C)c([C@H](OC(C)(C)C)C(=O)O)c(N2CCC(C)(C)CC2)c1-c1ccc2c(c1)CCN(c1nccc(N3CCS(=O)(=O)CC3)n1)C2 [Example 46, (S)-2-(tert-Butoxy)-2-(4-(4,4-dimethylpiperidin-1-yl)-5-(2-(4-(1,1-dioxidothiomorpholino)pyrimidin-2-yl)-1,2,3,4-tetrahydroisoquinolin-6-yl)-2,6-dimethylpyridin-3-yl)acetic Acid]",9 nM
18,"Cc1ccc2c(n1)oc1c(N3CCc4cc(-c5cnc(C)c([C@H](OC(C)(C)C)C(=O)O)c5N5CCC(C)(C)CC5)ccc4C3)ncnc12 [Example 47, (2S)-2-(tert-Butoxy)-2-[4-(4,4-dimethylpiperidin-1-yl)-2-methyl-5-(2-{11-methyl-8-oxa-3,5,10-triazatricyclo[7.4.0.0^2,7]trideca-1(9),2,4,6,10,12-hexaen-6-yl}1,2,3,4tetrahydroisoquinolin-6-yl)pyridin-3-yl]acetic Acid]",1 nM
19,"Cc1ncc(-c2ccc3c(c2)CCN(c2ncnc4c2oc2ncccc24)C3)c(N2CCC(C)(C)CC2)c1[C@H](OC(C)(C)C)C(=O)O [Example 48, (2S)-2-(tert-Butoxy)-2-[4-(4,4-dimethylpiperidin-1-yl)-2-methyl-5-(2-{8-oxa-3,5,10-triazatricyclo[7.4.0.0^2,7]trideca-1(9),2,4,6,10,12-hexaen-6-yl}-1,2,3,4-tetrahydroisoquinolin-6-yl)pyridin-3-yl]acetic Acid]",0.6 nM
